Measurements published in paper PMC6853638, “TMC1 is an essential component of a leak channel that modulates tonotopy and excitability of auditory hair cells in mice” (eLife, 2019).
Blank lines part the entries; values can stand above or below the compound they belong to.

Tests used:
[1] = biological target: T1, TMC1-mediated leak conductance (Mus musculus, UniProt Q8R4P5); assay: Background/leak current (IBG) inhibition by blockers, whole-cell voltage clamp of OHCs; assay type: cell-based
T1 sequence (Q8R4P5 1-757): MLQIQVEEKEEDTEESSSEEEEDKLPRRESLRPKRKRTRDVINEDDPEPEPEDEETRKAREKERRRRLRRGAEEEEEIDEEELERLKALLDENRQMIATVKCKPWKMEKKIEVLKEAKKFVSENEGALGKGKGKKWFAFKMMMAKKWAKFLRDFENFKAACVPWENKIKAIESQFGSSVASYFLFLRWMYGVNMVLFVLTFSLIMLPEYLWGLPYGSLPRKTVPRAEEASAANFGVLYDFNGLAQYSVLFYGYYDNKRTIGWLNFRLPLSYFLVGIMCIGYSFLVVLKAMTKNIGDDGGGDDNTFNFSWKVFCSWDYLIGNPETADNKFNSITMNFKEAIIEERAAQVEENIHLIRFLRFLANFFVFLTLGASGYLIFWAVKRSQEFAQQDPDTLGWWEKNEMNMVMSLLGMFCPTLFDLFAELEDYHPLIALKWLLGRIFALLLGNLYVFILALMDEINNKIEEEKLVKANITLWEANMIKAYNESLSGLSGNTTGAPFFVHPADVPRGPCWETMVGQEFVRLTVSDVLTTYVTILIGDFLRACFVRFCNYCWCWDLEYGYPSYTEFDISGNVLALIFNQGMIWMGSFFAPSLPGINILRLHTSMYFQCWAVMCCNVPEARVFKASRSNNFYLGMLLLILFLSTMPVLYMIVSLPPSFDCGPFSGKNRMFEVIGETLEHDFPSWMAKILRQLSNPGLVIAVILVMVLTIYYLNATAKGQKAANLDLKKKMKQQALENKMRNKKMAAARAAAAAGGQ
Protocol: (§1) Hair cells were recorded using whole-cell voltage or current clamp as previously described ([Xiong et al., 2012]). All experiments were performed at room temperature (20–25°C). Briefly, the basilar membrane with hair cells was acutely dissected from neonatal mice. […] The acutely isolated or cultured basilar membrane was used for electrophysiological recording within 1 h. Hair cells were imaged under an upright microscope (BX51WI, Olympus, Tokyo, Japan) with a 60 × water immersion objective and an sCMOS camera (ORCA Flash4.0, Hamamatsu, Hamamatsu City, Japan) controlled by MicroManager 1.6 software ([Edelstein et al., 2010]). Patch pipettes were made from borosilicate glass capillaries (BF150-117-10, Sutter Instrument Co., Novato, CA) with a pipette puller (P-2000, Sutter) and polished on a microforge (MF-830, Narishige, Tokyo, Japan) to resistances of 4–6 M'Ω. […] Hair cells were recorded with a patch-clamp amplifier (EPC 10 USB and Patchmaster software, HEKA Elektronik, Lambrecht/Pfalz, Germany).
(§2) The sampling rate was 1 kHz for leak current recording, 50 kHz for the IV protocol and current-clamp recording, and 100 kHz for unitary channel recording. The voltage-clamp used a –70 mV holding potential, and the current-clamp was held at 0 pA. Only recordings with a current baseline <20 pA in NMDG solution were used for statistical analysis.
(§3) Dose-inhibition curves were fitted with a Hill equation: Ix/Imax=X^h/(K^h+X^h))
(§4) Where K is the half-inhibition dose (IC50) and h is the Hill slope. Imax is the maximal current in control condition.

[2] = biological target: T2, MET channel (Mus musculus, UniProt Q8R4P5); assay: MET current (IMET) inhibition by blockers, whole-cell voltage clamp of OHCs with glass-probe hair-bundle deflection; assay type: cell-based; conditions: OHCs, 800 nm step deflection, […] Ca2+, holding −70 mV, Hill fit; read-out: IC50, IMET
T2 construct: the basilar membrane with hair cells was acutely dissected from neonatal mice; endogenous in cells; host or cells: outer hair cells of acutely dissected neonatal mouse cochlea
T2 sequence (Q4KL25 whole entry partner, one chain of several): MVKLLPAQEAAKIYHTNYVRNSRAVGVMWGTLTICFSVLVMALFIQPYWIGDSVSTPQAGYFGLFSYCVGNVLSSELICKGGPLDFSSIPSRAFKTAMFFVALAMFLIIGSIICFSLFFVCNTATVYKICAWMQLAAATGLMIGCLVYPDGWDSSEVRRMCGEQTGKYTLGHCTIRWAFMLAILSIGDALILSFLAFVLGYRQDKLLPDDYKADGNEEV
T2 sequence (Q8K467 29-153 partner, one chain of several): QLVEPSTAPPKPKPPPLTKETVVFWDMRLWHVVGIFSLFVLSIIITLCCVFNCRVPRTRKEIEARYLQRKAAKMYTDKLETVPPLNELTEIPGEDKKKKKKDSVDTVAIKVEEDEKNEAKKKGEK
T2 sequence (Q9Z309 whole entry partner, one chain of several): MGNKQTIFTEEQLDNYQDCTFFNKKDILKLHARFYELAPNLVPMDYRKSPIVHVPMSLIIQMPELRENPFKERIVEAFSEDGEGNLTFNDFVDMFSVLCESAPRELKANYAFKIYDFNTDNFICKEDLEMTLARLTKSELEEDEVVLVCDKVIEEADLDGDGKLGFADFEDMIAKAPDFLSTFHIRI
Protocol: All experiments were performed at room temperature (20–25°C). Briefly, the basilar membrane with hair cells was acutely dissected from neonatal mice. […] The acutely isolated or cultured basilar membrane was used for electrophysiological recording within 1 h. […] Hair cells were recorded with a patch-clamp amplifier (EPC 10 USB and Patchmaster software, HEKA Elektronik, Lambrecht/Pfalz, Germany).
as §2
The hair bundle was deflected by two types of mechanical stimulus, fluid jet and glass probe. […] In brief, a 40 Hz sinusoidal wave stimulus was delivered by a 27-mm-diameter piezoelectric disc driven by a home-made piezo amplifier pipette with a tip diameter of 3–5 μm positioned 5–10 μm from the hair bundle to evoke maximum MET currents. […] The actuator was driven with voltage steps that were low-pass filtered at 10 KHz. To avoid bundle damage caused by overstimulation, the glass probe was shaped to have a slightly smaller diameter than the hair bundles, and the stimulation distance was 800 nm for macroscopic current and 100 nm for unitary channel recording. For hair bundle removal, a pipette with 1 μm diameter tip was used to suck away the hair bundles of the target OHCs. The hair-bundle-removed OHCs with good condition were further recorded. Examined by a fluid-jet stimulation, the OHCs without obvious MET current were further measured for the leak current.
as §3, §4

[3] = biological target: T2, MET channel; assay: Location-specific macroscopic MET current in OHCs, fluid-jet stimulation; assay type: cell-based; conditions: wild-type OHCs in 35 mM Ca2+
Protocol: (§5) Hair cells were recorded using whole-cell voltage or current clamp as previously described ([Xiong et al., 2012]). All experiments were performed at room temperature (20–25°C). Briefly, the basilar membrane with hair cells was acutely dissected from neonatal mice. […] The acutely isolated or cultured basilar membrane was used for electrophysiological recording within 1 h. Hair cells were imaged under an upright microscope (BX51WI, Olympus, Tokyo, Japan) with a 60 × water immersion objective and an sCMOS camera (ORCA Flash4.0, Hamamatsu, Hamamatsu City, Japan) controlled by MicroManager 1.6 software ([Edelstein et al., 2010]). Patch pipettes were made from borosilicate glass capillaries (BF150-117-10, Sutter Instrument Co., Novato, CA) with a pipette puller (P-2000, Sutter) and polished on a microforge (MF-830, Narishige, Tokyo, Japan) to resistances of 4–6 M'Ω. Intracellular solution contained (in mM): 140 CsCl, 1 MgCl2, 0.1 EGTA, 2 Mg-ATP, 0.3 Na-GTP, and 10 H-HEPES, pH 7.2), except when CsCl was replaced with KCl in current-clamp. Hair cells were recorded with a patch-clamp amplifier (EPC 10 USB and Patchmaster software, HEKA Elektronik, Lambrecht/Pfalz, Germany).
(§6) For single-channel recordings, we followed published procedures ([Ricci et al., 2003]; [Xiong et al., 2012]). The intracellular solution was the same for macroscopic and microscopic current recording. […] After bundle destruction, fresh external solution was given to re-establish the corresponding extracellular ionic environment. […] Only traces with obvious single-channel events were included for analyzing.
The sampling rate was 1 kHz for leak current recording, 50 kHz for the IV protocol and current-clamp recording, and 100 kHz for unitary channel recording. […]
The hair bundle was deflected by two types of mechanical stimulus, fluid jet and glass probe. […] The hair-bundle-removed OHCs with good condition were further recorded. Examined by a fluid-jet stimulation, the OHCs without obvious MET current were further measured for the leak current.

[4] = tested on: MET channel; design: method as in Kim and Fettiplace, 2013; conditions: P5 apical OHCs; ref Kim and Fettiplace, 2013; cited from earlier work
[5] = biological target: T3, leak current (Mus musculus, UniProt Q8R4P5); assay: Background leak current in graded Ca2+ and Na+ concentrations (wild-type and Tmc1-knockout OHCs); assay type: cell-based; conditions: 35 mM [Ca2+]o
T3 construct: the basilar membrane with hair cells was acutely dissected from neonatal mice; endogenous in cells; host or cells: outer hair cells of acutely dissected neonatal mouse cochlea
T3 sequence (Q8R4P5 1-757): T1 sequence (Q8R4P5 1-757)
Protocol: as §5
(§7) In Figure 6A, LiCl and CsCl were 150 mM, completely substituting for NaCl.
The osmotic pressure of each solution was re-adjusted to 300–320 mOsm/kg with sucrose, and the pH was adjusted to 7.4.

[6] = tested on: MET channel; assay: Unitary MET channel current recording in OHCs; assay type: cell-based, mouse
Description: as §6, §2
The hair bundle was deflected by two types of mechanical stimulus, fluid jet and glass probe. The fluid jet stimulation was performed as described previously ([Beurg et al., 2014]). In brief, a 40 Hz sinusoidal wave stimulus was delivered by a 27-mm-diameter piezoelectric disc driven by a home-made piezo amplifier pipette with a tip diameter of 3–5 μm positioned 5–10 μm from the hair bundle to evoke maximum MET currents. […] The actuator was driven with voltage steps that were low-pass filtered at 10 KHz. To avoid bundle damage caused by overstimulation, the glass probe was shaped to have a slightly smaller diameter than the hair bundles, and the stimulation distance was 800 nm for macroscopic current and 100 nm for unitary channel recording. For hair bundle removal, a pipette with 1 μm diameter tip was used to suck away the hair bundles of the target OHCs. The hair-bundle-removed OHCs with good condition were further recorded. Examined by a fluid-jet stimulation, the OHCs without obvious MET current were further measured for the leak current.

[7] = biological target: T4, leak current in OHCs (Mus musculus, UniProt Q8R4P5); assay: Ion-permeation tests of the leak current (ion substitution in the external solution); assay type: cell-based; conditions: 150 mM NaCl partially or completely replaced (150 mM CsCl; 75 mM Ca2+); compared with Na+
T4 construct: the basilar membrane with hair cells was acutely dissected from neonatal mice; endogenous in cells; host or cells: outer hair cells of acutely dissected neonatal mouse cochlea
T4 sequence (Q8R4P5 1-757): T1 sequence (Q8R4P5 1-757)
Protocol: as §5, §7

[8] = biological target: T2, MET channel; assay: MET current in graded Ca2+ and Na+ concentrations; assay type: cell-based; conditions: wild-type OHCs
Protocol: as §1
The hair bundle was deflected by two types of mechanical stimulus, fluid jet and glass probe. […] The hair-bundle-removed OHCs with good condition were further recorded. Examined by a fluid-jet stimulation, the OHCs without obvious MET current were further measured for the leak current. […]

- IC50 ([1]; OHCs, […] Ca2+, holding −70 mV, Hill fit, read-out: IC50, IBG (leak conductance)): 531 µM
- IC50 [2]: 259 µM
SMILES: [Cl][La]([Cl])[Cl] [La^3+, LaCl3]

SMILES: N=C(N)NC(=O)c1nc(Cl)c(N)nc1N [Amiloride, amiloride]
- effect on the leak current compared with the MET current ([1]; graded concentrations): affected the leak current, albeit at higher concentrations than the MET current

- macroscopic IMET ([3]; location D05, holding −70 mV): –369 ± 13 pA
- macroscopic IMET ([3]; location D40, holding −70 mV): –384 ± 30 pA
- macroscopic IMET ([3]; location D60, holding −70 mV): –461 ± 31 pA
- size of ILeak conducted by the substituted cation [7]: robustly blocked
- [Ca2+]o after which the MET current reached a plateau, sufficient to block the leak current [8]: > 10 mM
SMILES: [Ca+2].[Cl-].[Cl-] [Ca^2+, CaCl2]
- Ca2+ permeability of the MET channel, PCa/PCs [4]: around six
- block of the leak current [5]: sufficient to block the leak current to an extent similar to TMC1 removal in OHCs
- unitary MET channel current ([6]; 35 mM Ca2+, location D05, holding −70 mV): –4.7 ± 0.1 pA
- unitary MET channel current ([6]; 35 mM Ca2+, location D20, holding −70 mV): –4.8 ± 0.1 pA
- unitary MET channel current ([6]; 35 mM Ca2+, location D60, holding −70 mV): –4.9 ± 0.1 pA
- unitary MET channel current ([6]; 35 mM [Ca2+]o, both low-frequency and high-frequency OHCs): ~ 5 pA

- size of ILeak conducted by the substituted cation [7]: slightly larger
SMILES: [Cl-].[Cs+] [Cs^+, CsCl]
